Measurements from patent US4889851A, “Benzothiadiazine compounds, and pharmaceutical composition comprising the same” (Fujisawa Pharmaceutical Co, Ltd., priority 1986, dated 1989).

tested on: Neonatal calvaria (bone resorption); experiment: Inhibition of hPTH-induced bone resorption in cultured neonatal rat calvaria (calcium accumulation in medium); format: cell-based, rat (Wistar); conditions: Test Compound 1×10^-5 M with hPTH(1-34) 1×10^-8 M; calvaria halves cultured 6 days at 37° C.; total calcium in medium by OCPC method
Method: Neonatal calvaria were dissected aseptically from 1-2 day old rat (Wistar), washed in Dulbecco's modified eagle's medium and divided along the sagittal suture. The calvaria halves were pooled and randomized in the different groups. The calvaria halves were cultured separately as free-floating bones in multi-well dishes containing a 2 ml of Dubecco's modified eagle's medium, with 10% heat-inactivated (56° C. for 1 hr) fetal calf serum. Treatment of hPTH(1-34)(1×10 ^-8 M) and the Test Compound (1×10 ^-5 M) was begun at zero time. All incubations were performed at 37° C., under an atmosphere of 95% air and 5% CO2 for 6 days. Bone resorption was determined by measuring the accumulation of calcium in the medium at 6 days. The concentration of total calcium in culture medium was measured by OCPC method with a spectrophotometer (Hitachi model U-3200, Tokyo, Japan).
As comparative data, similar tests were conducted using culture medium with hPTH (1×10^-8 M)only, and culture medium without both hPTH and Test Compound.
Test results were represented in terms of percentage of inhibition calculated by the following formula: [formula] CD the concentration of total calcium in culture medium treated with both hPTH and Test Compound
CO the concentration of total calcium in control culture medium without both hPTH and Test Compound
CP the concentration of total calcium in culture medium treated with hPTH only

Going from `CC(C)COc1ccc2c(c1)N(C)C(=O)N(c1ccc(Cl)cc1)S2(=O)=O` [(b), 2-(4-Chlorophenyl)-4-methyl-6-(2-methylpropoxy)-2H-1,2,4-benzothiadiazine-3(4H)-one 1,1-dioxide] to `CC(C)Oc1ccc2c(c1)N(C)C(=O)N(c1ccc(Cl)cc1)S2(=O)=O` [(a), 2-(4-Chlorophenyl)-6-isopropoxy-4-methyl-2H-1,2,4-benzothiadiazine-3(4H)-one 1,1-dioxide], the “Inhibition (%)” value rises from 56.1% to 79.7%.

First: CN1C(=O)N(c2ccc(Cl)cc2)S(=O)(=O)c2ccc(OCC3CCCCC3)cc21 [(c), 2-(4-Chlorophenyl)-4-methyl-6-cyclohexylmethoxy-2H -1,2,4-benzothiadiazine-3(4H)-one 1,1-dioxide]
Second: C[C@@H](Oc1ccc2c(c1)N(C)C(=O)N(c1ccc(Cl)cc1)S2(=O)=O)C(=O)O [(f), (1R)-(+)-2-(4-Chlorophenyl)-6-(l-carboxyethoxy)-4-methyl-2H-1,2,4-benzothiadiazine-3(4H)-one 1,1-dioxide]
The “Inhibition (%)” value of the first is higher: 62.5% for the first, 50.2% for the second.

Compared with `CC(C)Oc1ccc2c(c1)N(C)C(=O)N(c1ccc(C(F)(F)F)cc1)S2(=O)=O` [(d), 2-(4-Trifluoromethylphenyl)-4-methyl-6-isopropoxy-2H-1,2,4-benzothiadiazine-3(4H)-one 1,1-dioxide], `CC(Oc1ccc2c(c1)N(C)C(=O)N(c1ccc(Cl)cc1)S2(=O)=O)C(=O)O` (stereo not drawn) [(e), 2-(4-Chlorophenyl)-6-(l-carboxyethoxy)-4-methyl-2H-1,2,4-benzothiadiazine-3(4H)-one 1,1-dioxide] is higher in “Inhibition (%)” value: 52.9% for the first, 67.9% for the second.
